Our source for the IC50 values is US7576071B2, “Antithrombotic compound” (sanofi-aventis, priority 2004, dated 2009).

For the experiment, the system named is washed human platelets, TRAP-induced aggregation. The experiment in a line: In vitro test for inhibition of human platelet aggregation induced by TRAP. Format: cell-based. The settings on record: 5 μM TRAP; washed human platelets; mean of n experiments; entries marked b measured with a Chronolog aggregometer, others with micro plate reader; read-out: Inhibition of TRAP (5 μM)-induced human platelet aggregation (IC50), mean. The text has this: I.b. In vitro Test for Inhibition of Human Platelet Aggregation Induced by TRAP
Introduction: Addition of trombin receptor agonist peptide (TRAP) to washed human platelets (WPL) in vitro induces platelet aggregation. This aggregation can be determined by measuring the optical density of the WPL. The in vitro test described here is used to analyze the activity of a test compound to inhibit TRAP-induced aggregation of human platelets. A micro plate reader is used to measure the activity of several compounds simultaneously.
An alternative vehicle is 0.9% NaCl in MQ H2O. The compound solution (either in MQ H2O or 0.9% NaCl in MQ H2O) is further diluted in 0.9% NaCl in MQ H2O.
Free-flowing blood (at least 100 mL) is taken from a healthy volunteer and collected in 0.1 volume 3.8% sodium citrate. 2H2O in MQ H2O (w/v). The final concentration is 0.38% sodium citrate. The citrated blood is centrifuged at 1,600 N/kg (160 g) in Hettich Rotanta/AP centrifuge (750 rpm) at RT. After 15 min, centrifugation is discontinued with the brake turned off and the supernatant (=PRP) is collected. • 2. Washed platelets (WPL):
After adding freshly made 1 μL PGI2 solution per ml PRP, the suspension is centrifuged at 13,500 N/kg (1,350 g) for 10 min in a Hettich Rotanta/AP centrifuge (i.e., 2,800 rpm) at RT. After gentle resuspension of the pellet in the same volume of fresh Watson buffer containing 5 ng/mL PGI2, the suspension is centrifuged at 1,350 g (2,800 rpm) for 10 min at RT again. The final platelet pellet is resuspended in Watson buffer to give approx. 400,000±50,000 platelets/[…]. • 3. Watson buffer:
134 mM NaCl, 2.9 mM KCl, 12 mM NaHCO3, 0.34 mM Na2HPO4.2H2O, 1 mM MgCl2.6H2O, 5 mM Glucose and 5 mM HEPES in MQ H2O. The pH is adjusted to 7.4 with 1 M NaOH. • 4. Prostaglandin I2 (Sigma, P6188 powder):
The PGI2 stock solution of 1 mg/mL in 1 M KOH is stored in aliquots of 100 μL at −20° C. Immediately before use, a solution of 5 μg/mL in ice-cold 0.9% NaCl in MQ H2O is prepared. • 5. Human Fibrinogen (Kordia/ERL, art nr: FIB 2 powder):
0.5 g fibrinogen powder is dissolved in 50 mL MQ H2O under vacuum. This stock solution is stored in aliquots of 1 mL at −20° C. Before use, a solution of 0.5 mg/mL in saline is prepared.
Before use, a solution of 50 μM TRAP in 0.9% NaCl in MQ H2O is prepared. For each test, a fresh solution is made.
• 1. Sysmex cell counter model KX-21 • 2. Labsystems iEMS reader MF with a 405 nm filter, an orbital shaker set at 1,000 rpm and a constant temperature of 37° C. Absorptions are measured with the Labsystems iEMS program. • 3. Blood collection system 600 mL with needle, art nr P4203 (NPBI) • 4. 96 wells micro plates (Greiner Labortechnik) flat-bottom
Procedure: The WPL concentration is counted in a Sysmex blood cell counter and the suspension is diluted with Watson buffer to obtain a concentration of 400,000±50,000 plt/μL. Before use, WPL is allowed to stabilize at room temperature for at least 20 min but not longer than 3-4 hours.
TRAP-induced aggregation: 150 μL WPL is pipetted into a well of a micro plate. 15 μL test compound or vehicle and 15 μL fibrinogen solution is added and the micro plate is placed in the micro plate reader at 37° C. Then, the optical density (OD) is measured at 405 nm and after shaking for 2 min in the reader, the OD405 is measured again to verify the stability of the platelets (absence of spontaneous platelet aggregation). 20 μL of 50 μM TRAP is added and the OD405 is kinetically measured every min for 14 min at 405 nm. Between two measurements, the plate is shaking for 40 seconds at 1,000 rpm (FIG. 1). For determination of the IC50 of a test compound, each test compound is investigated in at least 2 experiments using WPL from different volunteers.
Evaluation of response: The mean OD of each concentration (including vehicle) is calculated at t=0 min and t=10 min. The percentage inhibition at each concentration is calculated using the formula: […]

What is called IC50 is the concentration at which inhibition is half-maximal. As for “Methyl O-2,3-di-O-methyl-4-O-<<12-N-<N-(3-keto-benzenesulfonyl)-4-O-{4-(4-piperidinyl)-butyl}-L-tyrosine>-12-aza-3,6,9-trioxa-dodecyl>>-6-O-sulfo-alpha-D-glucopyranosyl-(1->4)-O-2,3-di-O-methyl-beta-D-glucopyranuronosyl-(1->4)-O-2,3,6-tri-O-sulfo-alpha-D-glucopyranosyl-(1->4)-O-2,3-di-O-methyl-alpha-L-idopyranuronosyl-(1>4)-3-O-methyl-2,6-di-O-sulfo-alpha-D-glucopyranoside octakis sodium salt [XIV]”, the half-inhibitory concentration (IC50) stood at 80 nM.
